≈ marks a conversion by molar mass, not a printed value. Like-named read-outs stand apart in the source and are kept apart here.
Legend:
MSSA = test: MICs of solithromycin and comparator drugs, MSSA (31 species); format: cell-based
Description: (§1) EXAMPLE. The formulations described herein show overall higher potency against ocular pathogens than commercial standards.
(§2) MICs (μg/ml) of Solithromycin and Comparator Drugs against Bacterial Species

Streptococcus pyogenes = test: MIC, Streptococcus pyogenes; format: cell-based; conditions: Streptococcus pyogenes
S. epidermidis = test: MICs of solithromycin and comparator drugs, S. epidermidis (30 species); format: cell-based
Description: as §1, §2

P. Acnes = test: MICs of solithromycin and comparator drugs against P. acnes; format: cell-based; conditions: Cutibacterium acnes; 51 species
Description: EXAMPLE. The formulations described herein show overall higher potency against ocular pathogens than commercial standards. MICs (μg/ml) of Solithromycin and Comparator Drugs against P. Acnes (51 Species)

Peptostreptococcus spp. = test: MIC, Peptostreptococcus spp.; format: cell-based; conditions: Peptostreptococcus; N = 10
Neisseria gonorrhoeae = test: MIC, Neisseria gonorrhoeae; format: cell-based; conditions: N = 34
S. pneumoniae = test: MICs of solithromycin and comparator drugs, S. pneumoniae (30 species); format: cell-based
Description: as §1, §2

Mycoplasma pneumoniae = test: MIC, Mycoplasma pneumoniae (38 strains); format: cell-based
MMP9 = MMP9 activity in PMA-stimulated U937 cells (gelatin zymography); format: cell-based, human
Protocol: EXAMPLE. […] Cells. The human monocytic cell line U937 was obtained from the American Type Culture Collection (ATCC, Rockville, Md.). PBMCs from COPD patients were obtained from Brompton hospital and separated by AccuSPIN (Sigma-Aldrich). […] U937 cells were differentiated into adherent macrophage-like morphology by exposure to PMA (50 ng/ml) for 48 h in complete growth medium. Cell viability was assessed microscopically by trypan blue staining. Cell toxicity was determined by MTT assay as needed. This study was approved by the ethics committee of the Royal Brompton Hospitals, and all subjects gave written informed consent. Zymography. MMP9 enzyme activity was measured by gelatin zymography. […] After electrophoresis, gels were incubated and rinsed with Novex® zymogram renaturing buffer (Invitrogen) for 30 min at room temperature. The gels were then rinsed in Novex® zymogram developing buffer (Invitrogen) for 30 min at room temperature prior to overnight incubation in the developing buffer at 37° C. After incubation, the gels were stained using a Colloidal Blue Staining Kit (Invitrogen) to visualize the zymogen bands. Statistical analysis. The results were expressed as the mean±SEM. Comparisons of data in two groups were performed using the Student's t test or the Wilcoxon signed rank test. Multiple comparisons were made by one-way ANOVA with post hoc test (Dunnett's) as appropriate. The difference was considered significant at p<0.05.

[1] = test system: Haemophilus parainfluenzae; test: MIC, Haemophilus parainfluenzae; format: cell-based; conditions: N = 11
Ureaplasma urealyticum = test: MIC, Ureaplasma urealyticum; format: cell-based; conditions: N = 10
MSRA = test: MICs of solithromycin and comparator drugs, MSRA (30 species); format: cell-based
Description: as §1, §2

Mycobacterium avium = test: MIC, Mycobacterium avium; format: cell-based; conditions: Mycobacterium avium; N = 30
[2] = test system: Viridans group streptococci; test: MIC, Viridans group streptococci; format: cell-based; conditions: N = 51
Staphylococcus aureus = test: MIC, Staphylococcus aureus; format: cell-based; conditions: N = 201
CA-MRSA = test: MIC, CA-MRSA; format: cell-based, Staphylococcus aureus; conditions: N = 30
TNFα = TNFα production in LPS-stimulated PMA-differentiated U937 cells (ELISA); format: cell-based, human; conditions: concentration not given
Protocol: (§3) EXAMPLE. […] Cells. The human monocytic cell line U937 was obtained from the American Type Culture Collection (ATCC, Rockville, Md.). PBMCs from COPD patients were obtained from Brompton hospital and separated by AccuSPIN (Sigma-Aldrich). […] U937 cells were differentiated into adherent macrophage-like morphology by exposure to PMA (50 ng/ml) for 48 h in complete growth medium. Cell viability was assessed microscopically by trypan blue staining. Cell toxicity was determined by MTT assay as needed. This study was approved by the ethics committee of the Royal Brompton Hospitals, and all subjects gave written informed consent. Cytokine ELISA. TNFα and IL-8 concentrations in the supernatant of cell cultures were determined by sandwich ELISA according to the manufacturer's instructions (R&D Systems Europe, Abingdon, UK). Statistical analysis. The results were expressed as the mean±SEM. Comparisons of data in two groups were performed using the Student's t test or the Wilcoxon signed rank test. Multiple comparisons were made by one-way ANOVA with post hoc test (Dunnett's) as appropriate. The difference was considered significant at p<0.05. […] Anti-inflammatory effects of solithromycin in U937 cells.

Corynebacterium spp. = test: MIC, Corynebacterium spp.; format: cell-based; conditions: Corynebacterium; N = 10
Legionella pneumophila = test: microbe, parasite or virus in culture; format: cell-based
Listeria monocytogenes = test: MIC, Listeria monocytogenes; format: cell-based; conditions: N = 10
CXCL8 = CXCL8 (IL-8) production in LPS-stimulated PMA-differentiated U937 cells (ELISA); format: cell-based, human; conditions: concentration not given
Protocol: as §3

Moraxella catarrhalis = test: MIC, Moraxella catarrhalis; format: cell-based; conditions: N = 21
Mycoplasma hominis = test: MIC, Mycoplasma hominis; format: cell-based; conditions: N = 13
H. influenzae = test: MICs of solithromycin and comparator drugs, H. influenzae (30 species); format: cell-based
Description: as §1, §2

Streptococcus pneumoniae = test: MIC, Streptococcus pneumoniae (150 strains); format: cell-based
Haemophilus influenzae = test: MIC, Haemophilus influenzae (100 strains); format: cell-based

## CC[C@H]1OC(=O)[C@H](C)[C@@H](O[C@H]2C[C@@](C)(OC)[C@@H](O)[C@H](C)O2)[C@H](C)[C@@H](O[C@@H]2O[C@H](C)C[C@H](N(C)C)[C@H]2O)[C@](C)(O)C[C@@H](C)CN(C)[C@H](C)[C@@H](O)[C@]1(C)O [Azithromycin, azithromycin]
MSSA
  I (intermediate susceptibility): 0%
  NS (not susceptible): 39%
  S (susceptible): 61%
MSSA; Staphylococcus aureus, MSSA
  MIC50: 2 µg/mL (≈ 2.67 µM)
  MIC90: > 32 µg/mL
Streptococcus pyogenes
  MIC50: > 16 µg/mL
Streptococcus pyogenes; 100 strains
  MIC90: > 16 µg/mL
Streptococcus pyogenes; N = 407 (CEM-101), N = 100 (azithromycin)
  MIC90: > 16 µg/mL
S. epidermidis
  I (intermediate susceptibility): 0%
  NS (not susceptible): 63%
  S (susceptible): 37%
S. epidermidis; Staphylococcus epidermidis
  MIC50: > 32 µg/mL
  MIC90: > 32 µg/mL
P. Acnes
  MIC50: 0.06 µg/mL (≈ 0.0801 µM)
  MIC90: 4 µg/mL (≈ 5.34 µM)
Peptostreptococcus spp.
  MIC50: 8 µg/mL (≈ 10.7 µM)
  MIC90: > 64 µg/mL
Neisseria gonorrhoeae
  MIC Range: 0.06 to 2 µg/mL
Neisseria gonorrhoeae; Neisseria gonorrhoeae
  MIC50: 0.25 µg/mL (≈ 0.334 µM)
  MIC90: 0.5 µg/mL (≈ 0.668 µM)
S. pneumoniae
  I (intermediate susceptibility): 3%
  NS (not susceptible): 23%
  S (susceptible): 73%
S. pneumoniae; Streptococcus pneumoniae
  MIC50: 0.06 µg/mL (≈ 0.0801 µM)
  MIC90: 8 µg/mL (≈ 10.7 µM)
Mycoplasma pneumoniae; Mycoplasma, 38 strains, read-out: MIC90
  MIC90: 0.0005 µg/mL (≈ 0.000668 µM)
Mycoplasma pneumoniae; Mycoplasma, N = 38
  MIC50: 0.00025 µg/mL (≈ 0.000334 µM)
Mycoplasma pneumoniae; N = 38
  MIC90: 0.0005 µg/mL (≈ 0.000668 µM)
MMP9
  inhibitory effect on MMP9 activity, lower than solithromycin: 10 fold
[1]; Haemophilus parainfluenzae
  MIC50: 1 µg/mL (≈ 1.34 µM)
  MIC90: 2 µg/mL (≈ 2.67 µM)
[1]
  MIC Range: 0.5-2^ μg/mL
Ureaplasma urealyticum
  MIC Range: 0.5-4^ μg/mL
Ureaplasma urealyticum; Ureaplasma urealyticum
  MIC50: 2 µg/mL (≈ 2.67 µM)
  MIC90: 4 µg/mL (≈ 5.34 µM)
MSRA
  MIC50: > 32 µg/mL
  MIC90: > 32 µg/mL
MSRA; 30 species
  I (intermediate susceptibility): 0%
  NS (not susceptible): 90%
  S (susceptible): 10%
Mycobacterium avium
  MIC50: 16 µg/mL (≈ 21.4 µM)
  MIC90: 16 µg/mL (≈ 21.4 µM)
[2]
  MIC50: 0.12 µg/mL (≈ 0.16 µM)
  MIC90: 4 µg/mL (≈ 5.34 µM)
  MIC Range: ≤0.008-16 ^ μg/mL
Staphylococcus aureus
  MIC50: > 16 µg/mL
  MIC90: > 16 µg/mL
CA-MRSA
  MIC Range: >16 µg/mL
CA-MRSA; Staphylococcus aureus, MRSA
  MIC50: > 16 µg/mL
  MIC90: > 16 µg/mL
TNFα
  effect on TNFα production: did not inhibit
Corynebacterium spp.
  MIC50: > 16 µg/mL
  MIC90: > 16 µg/mL
Legionella pneumophila; Legionella pneumophila
  MIC50: 1 µg/mL (≈ 1.34 µM)
  MIC90: 2 µg/mL (≈ 2.67 µM)
Legionella pneumophila; N = 30
  MIC90: 2 µg/mL (≈ 2.67 µM)
Listeria monocytogenes; Listeria monocytogenes
  MIC50: 0.5 µg/mL (≈ 0.668 µM)
  MIC90: 1 µg/mL (≈ 1.34 µM)
Listeria monocytogenes
  MIC Range: 0.5-1^ μg/mL
CXCL8
  effect on IL-8 production: did not inhibit
Moraxella catarrhalis; Moraxella catarrhalis
  MIC50: 0.03 µg/mL (≈ 0.0401 µM)
  MIC90: 0.06 µg/mL (≈ 0.0801 µM)
Moraxella catarrhalis
  MIC Range: 0.03 to 0.5 µg/mL
Mycoplasma hominis
  MIC Range: 0.5-4^ μg/mL
H. influenzae
  I (intermediate susceptibility): 0%
  MIC Range: 1 to 4 µg/mL
  NS (not susceptible): 0%
  S (susceptible): 100%
H. influenzae; Haemophilus influenzae
  MIC50: 2 µg/mL (≈ 2.67 µM)
  MIC90: 2 µg/mL (≈ 2.67 µM)
Streptococcus pneumoniae; N = 150
  MIC90: >16 µg/mL
Streptococcus pneumoniae; Streptococcus pneumoniae, 150 strains, read-out: MIC90
  MIC90: > 16 µg/mL
Streptococcus pneumoniae; Streptococcus pneumoniae, N = 150
  MIC50: > 16 µg/mL
Haemophilus influenzae; Haemophilus influenzae, 100 strains, read-out: MIC90
  MIC90: 2 µg/mL (≈ 2.67 µM)
Haemophilus influenzae; Haemophilus influenzae, N = 100
  MIC50: 2 µg/mL (≈ 2.67 µM)
Haemophilus influenzae; N = 100
  MIC90: 2 µg/mL (≈ 2.67 µM)
  MIC Range: 0.25 to 4 µg/mL

Source: patent US20200009173A1, “TRIAZOLE-CONTAINING MACROLIDES AND OPHTHALMIC USES THEREFOR” (Tetard, Inc., priority 2017, published 2020)
